Measured values as given in ChEMBL document CHEMBL1136459, “New antibacterial tetrahydro-4(2H)-thiopyran and thiomorpholine S-oxide and S,S-dioxide phenyloxazolidinones” (Bioorg Med Chem Lett, 2003).
Values after ≈ are worked out from the molar mass of the structure shown.

Experiments:
Haemophilus influenzae [1] = assay: In vitro antibacterial activity against Haemophilia influenzae strains 30063 and ATCC 31517 (HI); range is 16-32; format: functional
Moraxella catarrhalis [2] = assay: In vitro antibacterial activity against Moraxella catarrhalis strains 30607 and 30603 (MC).; format: functional
Staphylococcus aureus [3] = assay: In vitro antibacterial activity against Staphylococcus aureus strains UC12673, UC9213, ATCC 29213, and UC9271 (SA); range is 4-16; format: functional
Enterococcus faecium = assay: In vitro antibacterial activity against vancomycin-resistant Enterococcus faecium UC12712 (VRE).
Streptococcus pneumoniae [4] = assay: In vitro antibacterial activity against Streptococcus pneumoniae strains ATCC6305 and 31573 (SPN).
Staphylococcus aureus [5] = assay: In vitro antibacterial activity against Linezolid resistance Staphylococcus aureus ATCC 29213 (LRSA)
Haemophilus influenzae [6] = assay: In vitro antibacterial activity against Haemophilia influenzae strains ATCC 30063 and ATCC 31517; format: functional
Staphylococcus aureus [7] = assay: In vitro antibacterial activity against Staphylococcus aureus strains UC12673, UC9213, ATCC 29213, and UC9271 (SA); range is 1-2; format: functional
[8] = test system: Staphylococcus epidermidis; assay: In vitro antibacterial activity against Staphylococcus epidermidis strains UC12084, 30031, and CDC-CNS90 (SE); range is 0.5-1; format: functional
Staphylococcus aureus [9] = assay: In vitro antibacterial activity against linezolid-resistant Staphylococcus aureus ATCC 29213 (LRSA).; format: functional
Streptococcus pneumoniae [10] = assay: In vitro antibacterial activity against Streptococcus pneumoniae strains ATCC 6305 and 31573 (SPN); range is 0.5-1
Haemophilus influenzae [11] = assay: In vitro antibacterial activity against Haemophilia influenzae strains 30063 and ATCC 31517 (HI); range is 4-16; format: functional
Moraxella catarrhalis [12] = assay: In vitro antibacterial activity against Moraxella catarrhalis strains 30607 and 30603 (MC); range is 8-16; format: functional
Staphylococcus aureus [13] = assay: In vitro antibacterial activity against Staphylococcus aureus strains UC12673, UC9213, ATCC 29213, and UC9271 (SA); format: functional
[14] = test system: Staphylococcus epidermidis; assay: In vitro antibacterial activity against Staphylococcus epidermidis strains UC12084, 30031, and CDC-CNS90 (SE); range is 0.13-2; format: functional
Streptococcus pneumoniae [15] = assay: In vitro antibacterial activity against Streptococcus pneumoniae strains ATCC 6305 and 31573 (SPN); range is 1-2
[16] = test system: Staphylococcus epidermidis; assay: In vitro antibacterial activity against Staphylococcus epidermidis strains UC12084, 30031, and CDC-CNS90 (SE); format: functional
Streptococcus pneumoniae [17] = assay: In vitro antibacterial activity against Streptococcus pneumoniae strains ATCC 6305 and 31573 (SPN); range is 32-64; format: functional
[18] = test system: Staphylococcus epidermidis; assay: In vitro antibacterial activity against Staphylococcus epidermidis strains UC12084, 30031, and CDC-CNS90 (SE); range is 32->64; format: functional

SMILES | MIC (Moraxella catarrhalis [2]) [µg/mL] | MIC (Enterococcus faecium) [µg/mL] | MIC (Haemophilus influenzae [6]) [µg/mL] | MIC (Staphylococcus aureus [9]) [µg/mL] | MIC (Staphylococcus aureus [13]) [µg/mL] | further results
O=C(NC[C@H]1CN(c2ccc(N3CCS(=O)(=O)CC3)c(F)c2)C(=O)O1)C1CC1 | 4 (≈ 9.72 µM) | 4 (≈ 9.72 µM) |  |  |  | MIC (Haemophilus influenzae [1]): 16 µg/mL (≈ 38.9 µM); MIC (Staphylococcus aureus [3]): 4 µg/mL (≈ 9.72 µM); MIC (Streptococcus pneumoniae [4]): 2 µg/mL (≈ 4.86 µM); MIC (Staphylococcus aureus [5]): 2 µg/mL (≈ 4.86 µM)
CO/N=C/c1ccc(/C=C/C(=O)NC[C@H]2CN(c3ccc(N4CC[S+]([O-])CC4)c(F)c3)C(=O)O2)cc1 | 4 (≈ 7.77 µM) | 2 (≈ 3.89 µM) | > 64 | 64 (≈ 124 µM) |  | MIC (Staphylococcus aureus [7]): 1 µg/mL (≈ 1.94 µM); MIC [8]: 0.5 µg/mL (≈ 0.972 µM); MIC (Streptococcus pneumoniae [10]): 0.5 µg/mL (≈ 0.972 µM)
NC(=O)NC[C@H]1CN(c2ccc(C3CCS(=O)(=O)CC3)c(F)c2)C(=O)O1 |  | 4 (≈ 10.4 µM) |  | > 64 | 16 (≈ 41.5 µM) | MIC (Haemophilus influenzae [11]): > 4 µg/mL; MIC (Moraxella catarrhalis [12]): > 8 µg/mL; MIC [14]: 0.13 µg/mL (≈ 0.337 µM); MIC (Streptococcus pneumoniae [15]): 1 µg/mL (≈ 2.59 µM)
NCCC(O)C(=O)NC[C@H]1CN(c2ccc(C3CCS(=O)(=O)CC3)c(F)c2)C(=O)O1 (some centres not stated) | > 64 |  | > 64 | > 64 | > 64 | MIC [16]: > 64 µg/mL; MIC (Streptococcus pneumoniae [17]): 32 µg/mL (≈ 72.2 µM)
CC(C)CCC(=O)NC[C@H]1CN(c2ccc(N3CC[S+]([O-])CC3)c(F)c2)C(=O)O1 | > 64 | > 64 | > 64 | > 64 | ≥ 64 | MIC [18]: 32 µg/mL (≈ 75.2 µM)
